Read-outs that look alike come from different tables or passages of the source.
Columns and labels:
UGT1A9 [1] = molecular target: T1, UGT1A9 (Homo sapiens, UniProt O60656); conditions: substrate inhibition model, propofol glucuronidation
T1 sequence (O60656 26-530): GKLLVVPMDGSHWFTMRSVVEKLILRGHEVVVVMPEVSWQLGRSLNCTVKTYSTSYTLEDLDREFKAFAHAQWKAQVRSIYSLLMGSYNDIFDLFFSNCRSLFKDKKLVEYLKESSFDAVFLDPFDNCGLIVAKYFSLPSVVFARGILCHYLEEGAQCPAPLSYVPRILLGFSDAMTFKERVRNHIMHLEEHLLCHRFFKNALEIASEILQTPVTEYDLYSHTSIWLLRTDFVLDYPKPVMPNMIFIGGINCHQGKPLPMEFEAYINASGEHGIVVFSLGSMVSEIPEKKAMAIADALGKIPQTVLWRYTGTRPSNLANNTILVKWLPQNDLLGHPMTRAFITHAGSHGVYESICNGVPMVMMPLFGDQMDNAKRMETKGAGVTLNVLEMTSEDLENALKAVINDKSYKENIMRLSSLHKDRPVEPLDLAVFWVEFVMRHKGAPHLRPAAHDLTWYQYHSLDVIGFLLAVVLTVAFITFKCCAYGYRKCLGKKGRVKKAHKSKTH

UGT1A9 [2] = molecular target: T1, UGT1A9
UGT2B7 = molecular target: T2, UGT2B7 (Homo sapiens, UniProt P16662); conditions: data not shown
T2 sequence (P16662 24-529): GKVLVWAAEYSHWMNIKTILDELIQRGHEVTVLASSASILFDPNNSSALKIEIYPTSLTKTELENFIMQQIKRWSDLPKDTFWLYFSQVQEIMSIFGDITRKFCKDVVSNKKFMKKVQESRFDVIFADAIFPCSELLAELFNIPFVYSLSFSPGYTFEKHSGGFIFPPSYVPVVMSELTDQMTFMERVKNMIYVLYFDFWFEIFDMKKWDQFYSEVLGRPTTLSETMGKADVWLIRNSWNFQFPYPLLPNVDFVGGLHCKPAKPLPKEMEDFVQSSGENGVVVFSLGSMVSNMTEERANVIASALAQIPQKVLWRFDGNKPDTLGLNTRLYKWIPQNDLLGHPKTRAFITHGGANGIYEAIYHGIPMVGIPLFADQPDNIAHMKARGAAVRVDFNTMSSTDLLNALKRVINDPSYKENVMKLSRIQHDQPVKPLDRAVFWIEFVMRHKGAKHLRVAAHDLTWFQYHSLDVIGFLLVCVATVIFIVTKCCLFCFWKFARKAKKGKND

Row | Compound | Ki (UGT1A9 [1]; human hepatocytes treated with UGT1A9 siRNA) | Ki (UGT1A9 [1]; human hepatocytes treated with UGT2B7 siRNA) | Ki (UGT1A9 [1]; human hepatocytes, OPTI Only) | Ki (UGT1A9 [1]; human hepatocytes, TR Only) | UGT1A9 activity remained (UGT1A9 [2]) | inhibition of 2,6-dimethylphenol glucuronidation (UGT1A9 [2]) | inhibition of UGT2B7-catalyzed morphine glucuronidation (UGT2B7)
1 | CC(C)c1cccc(C(C)C)c1O [propofol] | 448 ± 203 µM | 199 ± 88.9 µM | 362 ± 31.3 µM | 521 ± 46.3 µM | – | – | –
2 | propofol glucuronide | – | – | – | – | greater than 60% | only weak inhibition | No inhibition
